Measurements from ChEMBL document CHEMBL5537162, “Development of Antibacterial Peptides with Membrane Disruption and Folate Pathway Inhibitory Activities against Methicillin-Resistant Staphylococcus aureus” (J Med Chem, 2024).
Calls of active or inactive are those of the source. No cut-off for these calls is given here.

Key:
[1] = (§1) Hemolytic activity in mouse RBC assessed as hemolysis incubated for 1 hrs by spectrophotometric analysis; format: toxicity, cell-based, Erythrocyte; conditions: mouse red blood cells (erythrocytes)
Erythrocyte = experiment: as §1; format: toxicity, cell-based; conditions: erythrocyte, 1 h
[2] = Hemolytic activity in mouse RBC assessed as hemolysis at 320 uM incubated for 1 hrs by spectrophotometric analysis relative to control; format: toxicity, cell-based, Erythrocyte; conditions: mouse red blood cells (erythrocytes), read-out: %max
[3] = Antiproliferative activity against HEK293T cells assessed as reduction in cell viability measured for 48 hrs by MTT assay; format: toxicity, cell-based, HEK-293T; conditions: human
Staphylococcus aureus [4] = experiment: Antibacterial activity against methicillin-resistant Staphylococcus aureus 18908 assessed as bacterial growth inhibition incubated for 24 hrs by CLSI based micro-broth dilution assay; format: functional
Staphylococcus aureus [5] = experiment: Antibacterial activity against methicillin-resistant Staphylococcus aureus 18475 assessed as bacterial growth inhibition incubated for 24 hrs by CLSI based micro-broth dilution assay; format: functional
Staphylococcus aureus [6] = experiment: Antibacterial activity against methicillin-resistant Staphylococcus aureus 18567 assessed as bacterial growth inhibition incubated for 24 hrs by CLSI based micro-broth dilution assay; format: functional
Staphylococcus aureus [7] = experiment: Antibacterial activity against methicillin-resistant Staphylococcus aureus 18878 assessed as bacterial growth inhibition incubated for 24 hrs by CLSI based micro-broth dilution assay; format: functional
Staphylococcus aureus [8] = experiment: Antibacterial activity against methicillin-resistant Staphylococcus aureus 19167 assessed as bacterial growth inhibition incubated for 24 hrs by CLSI based micro-broth dilution assay; format: functional
Staphylococcus aureus [9] = experiment: Antibacterial activity against methicillin-resistant Staphylococcus aureus 19423 assessed as bacterial growth inhibition incubated for 24 hrs by CLSI based micro-broth dilution assay; format: functional
Staphylococcus aureus [10] = experiment: Antibacterial activity against Staphylococcus aureus 29213 assessed as bacterial growth inhibition incubated for 24 hrs by CLSI based micro-broth dilution assay; format: functional
Staphylococcus aureus [11] = experiment: Antibacterial activity against Staphylococcus aureus 8325.4 assessed as bacterial growth inhibition incubated for 24 hrs by CLSI based micro-broth dilution assay; format: functional
Staphylococcus aureus [12] = experiment: Antibacterial activity against Methicillin-resistant Staphylococcus aureus infected in ICR mouse skin infection model assessed as reduction in bacterial content at 40 mg/kg, sc measured upto 10 days; format: functional, organism-based; conditions: time <= 10.0 day

| Substance | HC50 at 1 h [1] | HC10 (Erythrocyte) | hemolysis at 1 h, 320 µM [2] | IC50 at 48 h [3] | MIC (Staphylococcus aureus [4]) | MIC (Staphylococcus aureus [5]) | MIC (Staphylococcus aureus [6]) | MIC (Staphylococcus aureus [7]) | MIC (Staphylococcus aureus [8]) | MIC (Staphylococcus aureus [9]) | MIC (Staphylococcus aureus [10]) | MIC (Staphylococcus aureus [11]) | Activity (Staphylococcus aureus [12]) |
| --- | --- | --- | --- | --- | --- | --- | --- | --- | --- | --- | --- | --- | --- |
| H-LARVARRVIRFIRRAW-NH2 | > 320 µM | > 320 µM | 8.58% | > 320 µM | 3 µM | 6 µM | 3 µM | 6 µM | 6 µM | 6 µM | 3 µM | 3 µM | Active |
| H-RRRLARRLIFFIRRAW-NH2 | > 320 µM | > 320 µM | 8.97% | > 320 µM | 3 µM | 6 µM | 6 µM | 6 µM | 6 µM | 6 µM | 3 µM | 3 µM | Active |
